In patent US7109329B2, “Neurologically active compounds and compounds with multiple activities” (priority 1988, dated 2006):

What was measured:
[1] = Formation of scar tissue at the trauma site; format: in vivo
Source text: It is believed that these mixed agonists interfere with triple helix formation in the synthesis of collagen protein, thus preventing or reducing the formation of hard scar tissue at the trauma site.
The purpose of liquid nitrogen is to reduce the structural integrity of the collagen laden, glial scar tissue, by freezing and defrosting. Collagenase then initiates a debridgement of the scar without attacking the nervous and osseous tissue. If required, streptokinase, or alteplase, both plasminogen activators can also be used to bring about a complete debridgement. In addition to 3-amino-propionitrile (a latherogen), 5-fluorodeoxyuridine and dehydroproline can be used to arrest further glial and fibroblastic invasion of the scar region, respectively.

[2] = Blood pressure after administration, cat; format: in vivo
[3] = Spinal cord transection in rats: recovery of hind limb function and reflexes under treatment; format: in vivo, rat
Experimental: The spinal cord of a group of rats was completely transected. After surgery, the rats were treated with guanabenz.
The rats presented with a condition of bloody eyes and nose for a period of 2 to 5 days after the transection. During the first two-weeks, proper plantar placement, weight bearing on the hind limbs and/or coordinated walking was not present.
In a further group of six rats the spinal cord was transected in accordance with the above Comparative Examples. After surgery and cleaning and mechanical treatment of the wounds in the same fashion, an intraperitoneal injection of 7-(guanidino-acetyl-theophylline (“C”) was administered at a dose of 5.0 mg/kg 24 hours post surgery. Within a 7 to 9 day period, the rats engaged in walking movements of the hind limbs coordinated with those of the front limbs and the hind limbs, including proper plantar placement and full weight bearing on the hind limbs.
Within 36 hours after the spinal cord transection, i.e., only 12 hours after initial administration of Compound C, the initial bloody eyes and nose condition had abated. […] Further the animals were alert and continued to eat in substantially normal quantities.
Starting 24 hours post-transection, immediately after each intraperitoneal administration of Compound C, reflexes such as the tail-flick and cross-extension would return, within 12 minutes post injection. […] Within 8 to 11 days the response became sustained, and was accompanied by long-term therapeutic restoration of coordinated movements, plantar placements and weight-bearing by the hind limbs.

[4] = Spasticity in previously untreated spinal cord transected rats (Working Example 2); format: in vivo, rat; conditions: 4.0 mg/kg BID intraperitoneally for 7 days
Source text: It was noted that some of the untreated rats in Comparative Example A developed severe spasticity three weeks after transection.

[5] = Blood pressure after administration, sheep; format: in vivo
[6] = Anesthesia in rats judged by reflexes and wakefulness; conditions: for anesthesia judged by reflexes (patellar, urethro-anal, startle, corneal etc.) after 30 minutes: room temperature 21° C., G 12 mg/kg, D 6 mg/kg or combination; for anesthesia judged by reflexes (patellar, urethro-anal, startle, corneal etc.) after 30 minutes / reflexes tested (as in Examples 48–53) / appearance of ears and digits of anesthetized animals / survival at the given doses: I.P.; for reflexes tested (as in Examples 48–53): room temperature 19.4° C.; for reflexes tested (as in Examples 48–53) / appearance of ears and digits of anesthetized animals: guanabenz acetate 12 mg/kg; for reflexes tested (as in Examples 48–53) / appearance of ears and digits of anesthetized animals / survival at the given doses: pentabarbital 25 mg/kg, ketamine 80 mg/kg
[7] = for core temperature allowed to fall to: 4 mg intraperitoneally, ambient 21° C., before transfer to 42° C. room (guanabenz: after about 15 minutes); for core temperature twenty minutes after injection: room temperature 21° C., G 12 mg/kg, D 6 mg/kg or combination; for core temperature twenty minutes after injection / mean core temperature one hour after injection: I.P.; for mean core temperature one hour after injection: room temperature 19.4° C., guanabenz acetate 12 mg/kg, pentabarbital 25 mg/kg, ketamine 80 mg/kg
Experimental: Room temperature was 21.5° C.
The core temperatures of the rats were allowed to fall to approximately 30° C., after about 15 minutes. At that time, the rats were placed in a temperature controlled room maintained at 42° C., together with 2 control rats treated only with the dextrose solution.
The core temperatures of the rats were allowed to fall to approximately 30° C. At that time, the rats were placed in a temperature controlled room maintained at 42° C., together with two control rats treated only with the dextrose solution.

[8] = Core temperature and behaviour of treated rats in a room at 42° C.; format: in vivo, rat; conditions: 4 mg intraperitoneally; for core temperature in the 42° C. room: placed at core temperature about 30° C.
[9] = Reversal of guanabenz-induced anesthesia and hypothermia by antagonists; format: in vivo, rat; conditions: for effect on guanabenz-induced anesthesia / effect on guanabenz-induced hypothermia (body temperature): guanabenz-treated rats (4 mg I.P.), Yohimbine 10 mg I.P.
[10] = Activities and properties of the compounds (Table III codes listed as Specific Properties in Table IV); conditions: codes of Table III
Source text: Certain of the compounds produce a profound hypothermia, but without anesthetizing. […] Table III, following, sets forth a list of the other properties of these guanidino compounds, which arise from their alpha-adrenergic agonist activity, combined with any inherent activity of the reactants chosen to achieve the final compound.
Except for items numbered 22 and 24–28 in Table III, substantially all of the guanidino compounds of this invention, as a result of their structure-activity relationship, are potent with respect to all of the above activities. However, as would be expected, various compounds have different, higher levels of, activities and properties which are listed as “Specific Properties”, with the Compounds numbered, in Table IV, below, according to the numbers in Tables I and II.

[11] = Intravenous anesthesia of a 70 kg mammal; format: in vivo; conditions: 70 kg mammal, 20 mg aminophylline intravenous over five minutes
Experimental: Thereafter, an intravenous injection containing 20 mg of aminophylline is administered over a period of five minutes. The large mammal is fully awakened within about 20 minutes, appearing alert and refreshed.
The period of time required to fully reverse the anesthesia can be increased or decreased by proportionally changing the amount of the antagonist. After metabolism of guanabenz, the mammal will spontaneously awaken, within about three to six hours after the I.V. drip is discontinued.

[12] = Electrical tail stimulation, vocalization threshold (anesthesia) in rats; format: in vivo, rat; conditions: guanabenz-anesthetized rats, 40 mgs. aminophylline
Experimental: A fifth rat was treated with merely an equal amount of the dextrose solution without guanabenz acetate. The rats were subjected to an electrical tail stimulation, by electrodes attached to their tails, to determine the point of positive (threshold) vocalization.
The normal vocalization threshold, and the point at which the control rat vocalized was approximately 7 volts. […] To bring the rats out of anesthesia, the rats were then injected with 40 mgs. of aminophylline, also in 1 ml of a 5% aqueous dextrose solution. […] The normal threshold for vocalization was reestablished, as there was no vocalization at 6 volts following recovery from anesthesia.
The rats were maintained under anaesthesia for a period of 50 minutes before injection of the aminophylline.

[13] = 5.0 mg/kg intraperitoneal 24 hours post surgery
[14] = 4 mg I.P., room temperature 21.5° C.
[15] = six anesthetized rats also injected with aminophylline, then tolazoline

Compound: N=C(N)NN [Aminoguanidine]
- effect on formation of the scar [1]: interfere with formation of the scar

Compound: Cn1c(=O)c2c(ncn2CC(=O)NC(=N)N)n(C)c1=O [C, Guanidino-7-Acetyltheophylline]
- blood pressure immediately after administration [2]: slight increase
- time until blood pressure returned to basal level [2]: ≤ 10 min
- time after initial administration until bloody eyes and nose condition had abated [3, 13]: 12 h
- time after spinal cord transection until bloody eyes and nose condition had abated [3, 13]: ≤ 36 h
- time post injection until return of reflexes (tail-flick, cross-extension) ([3]; after each intraperitoneal administration, starting 24 hours post-transection): ≤ 12 min
- period until walking movements of the hind limbs coordinated with the front limbs, proper plantar placement and full weight bearing ([3]; six spinal transected rats, 5.0 mg/kg intraperitoneal from 24 hours post surgery): 7 to 9 days
- signs of sedation or lethargy during the course of treatment ([3]; spinal transected rats, 5.0 mg/kg intraperitoneal): did not exhibit any signs of sedation or lethargy
- time until the response became sustained with long-term restoration of coordinated movements ([3]; spinal transected rats, intraperitoneal): 8 to 11 days
- time until marked decrease in spasticity ([4]; three spastic control rats three weeks after transection): ≤ 4 days
- time until complete elimination of spasticity ([4]; three spastic control rats): 7 days
- blood pressure immediately after administration [5]: slight increase
- time until blood pressure returned to basal level [5]: ≤ 10 min

Compound: COc1cc(C=NNc2ncc[nH]2)cc(OC)c1OC [Compound 13, Melazine]
- anesthetic state of the treated rats [6, 14]: remained awake
- mean intraperitoneal temperature [7, 14]: 30.2 °C
- temperatures of the liver and the kidneys [7, 14]: ~32.7 °C
- core temperature (colonic measurement) after drop ([7]; eight rats each, 4 mg I.P. in 5% dextrose, room temperature 21.5° C., normal value 36.5° C.): 21.5 °C

Compound: Clc1cccc(Cl)c1C=Nc1nc(N=Cc2c(Cl)cccc2Cl)nc(N=Cc2c(Cl)cccc2Cl)n1 [Compound 18, 2,4,6-Tris (2,6-dichlorobenzylideneamino)-1,3,5-s-Triazine]
- state of treated rats in the 42° C. room [8]: remained calm, but active
- core temperature in the 42° C. room [8]: 30 °C
- core temperature allowed to fall to [7]: approximately 30 °C

Compound: Cn1c(=O)c2c(ncn2CC(=O)NCc2nc3ccccc3[nH]2)n(C)c1=O [Compound 96, 2-(Theophylline-7-acetamido)-2-methylbenzimidazole]
- antagonism of both the hypothermic and anesthetic effects of guanidino compounds ([9]; rat, in vivo): reverse both the hypothermic and anesthetic effects
- Specific Properties ([10]; higher levels of activity): 3, adrenergic antagonist, 12

Compound: Cn1c(=O)c2c(ncn2CC(=O)NC(=O)c2ccc(C(=N)N)cc2)n(C)c1=O [Compound 97, 4-(Amidino)-N-(theophylline-7-acetyl)-benzamide]
- antagonism of both the hypothermic and anesthetic effects of guanidino compounds ([9]; rat, in vivo): reverse both the hypothermic and anesthetic effects
- Specific Properties ([10]; higher levels of activity): 3, 2, 2, antagonist, 12

Compound: C=CCN1CC[C@]23c4c5ccc(O)c4O[C@H]2C(=O)CC[C@@]3(O)[C@H]1C5 [Naloxone]
- antagonism of both the hypothermic and anesthetic effects of guanidino compounds ([9]; rat, in vivo): not found to be a useful antagonist

Compound: COC(=O)[C@@H]1[C@H]2C[C@H]3c4[nH]c5ccccc5c4CCN3C[C@@H]2CC[C@@H]1O [Yohimbine]
- effect on guanabenz-induced anesthesia [9]: brought out of anesthesia
- effect on guanabenz-induced hypothermia (body temperature) [9]: hypothermia was simultaneously reversed
- antagonism of both the hypothermic and anesthetic effects of guanidino compounds ([9]; rat, in vivo): reverse both the hypothermic and anesthetic effects

Compound: Cn1c(=O)c2[nH]cnc2n(C)c1=O [aminophylline]
- effect on guanabenz-induced anesthesia [9]: caused them to awaken
- effect on guanabenz-induced hypothermia (body temperature) [9]: practically no effect on body temperature
- effect of injection on melazine-treated rats ([9]; three melazine-treated rats): no discernible effect
- time until fully awakened from guanabenz anesthesia [11]: ≤ 20 min
- voltage at which vocalization was present ([12]; by 8 minutes after injection): 7 volts
- voltage at which vocalization returned ([12]; within 6 minutes after injection): 12 volts

Compound: Clc1cccc(Cl)c1N=C1NCCN1 [clonidine]
- effect on formation of the scar [1]: interfere with formation of the scar

Compound: CN1C(=O)CN=C(c2ccccc2)c2cc(Cl)ccc21 [diazepam]
- anesthesia judged by reflexes (patellar, urethro-anal, startle, corneal etc.) after 30 minutes [6]: all such reflexes were present
- core temperature twenty minutes after injection [7]: no change

Compound: N=C(N)N/N=C/c1c(Cl)cccc1Cl [guanabenz acetate]
- reflexes tested (as in Examples 48–53) [6]: disappeared
- anesthesia judged by reflexes (patellar, urethro-anal, startle, corneal etc.) after 30 minutes [6]: profound anesthesia
- state of treated rats in the 42° C. room [8]: remained under anesthesia
- core temperature in the 42° C. room [8]: 30 °C
- core temperature allowed to fall to [7]: approximately 30 °C
- mean core temperature one hour after injection [7]: 24.3 °C
- core temperature twenty minutes after injection [7]: about 31 °C

Compound: CNC1(c2ccccc2Cl)CCCCC1=O (centres unmarked) [ketamine]
- appearance of ears and digits of anesthetized animals [6]: semi-cyanotic
- survival at the given doses [6]: did not survive
- reflexes tested (as in Examples 48–53) [6]: disappeared
- mean core temperature one hour after injection [7]: 34.5 °C

Compound: CCCC(C)C1(CC)C(=O)NC(=O)NC1=O (centres unmarked) [pentabarbital]
- appearance of ears and digits of anesthetized animals [6]: semi-cyanotic
- survival at the given doses [6]: did not survive
- reflexes tested (as in Examples 48–53) [6]: disappeared
- mean core temperature one hour after injection [7]: 29.3 °C

Compound: c1ccc(CC2=NCCN2)cc1 [tolazoline]
- antagonism of the hypothermic effect substantially without reducing the anesthetized condition ([9]; rat, in vivo): effect-specific alpha2-antagonists
- reversal of anesthesia-hypothermia induced by guanabenz [9, 15]: completely reversed
- time until anesthesia-hypothermia reversed and body temperature normal [9, 15]: ≤ 25 min

Compound: N-(2,6-Dichlorbenzylidene)-3-(5-hydroxyindole)ethylamine [Compound 78]
- Specific Properties ([10]; […]): 5

Compound: N-(PGE1carboxamido)-1-aminophthalazine [Compound 152]
- Specific Properties ([10]; […]): 6–11 (anti-impotence)

Compound: N-(PGE1carboxamido)-guanidine [Compound 151]
- Specific Properties ([10]; […]): 6–11 (anti-impotence)

Compound: N-[(6-PGE1carbonyl)-2,5,7,8-tetramethylchroman-2-carboxamido]-1-aminophthlazine [Compound 153]
- Specific Properties ([10]; […]): 6–11 (anti-impotence)
